Test results as given in patent US20110091875A1, “THREE-COMPONENT GENE EXPRESSION REPORTING SYSTEM FOR MAMMALIAN CELLS AND APPLICATIONS OF THE SAME” (National Chung Cheng University, priority 2009, published 2011).

Key:
Format in all cases: cell-based, human
Trip10 promoter [1] = test: Effect of 17β-estradiol upon the Trip10 promoter against DNA methylation (EGFP in SC6 cells); conditions: 10 ng/mL 17β-estradiol before; for EGFP intensity compared to 0 hr: during and after transfection with me_Trip10 DNA
Experimental: The obtained photographs were analyzed via an image analyzing software Scion Image. Briefly, the photographs were divided into several regions by the Scion Image software, in which the EGFP signal in a region visually observed as a black region was defined as 0, and the EGFP signal in a region that was visually observed to have the strongest fluorescence was defined as 255. Thereafter, the EGFP intensity was obtained by summing up the EGFP signals in all the regions, followed by dividing by the total area of said regions. Finally, the EGFP intensity at 0 hr was defined as 100%, and the EFGP intensity percentages of the EGFP intensities at other time points relative to that at 0 hr were calculated.
First, a proper amount of 17β-estradiol was dissolved in alcohol to form a stock solution having a concentration of 10 mg/mL. The SC6 cells as obtained in the above Example 3 were plated into each well of 6-well plates (1×10^5 cells/2 mL screening medium/well), followed by cultivation overnight in an incubator (37° C., […]/5% CO2) to permit cell attachment. […] After cultivation at 37° C. for 24 hours, the SC6 cells were transfected with 0.4 μg of single-stranded me_Trip10 DNA according to the transfection treatment as described in the section, entitled “2. Transfection of SC6 cells with me_Trip10 DNA” of the above Example 4, except that the growth medium was supplemented with 10 ng/mL 17β-estradiol and was added into each well until a final volume of 1 mL was reached.
The first time at which the liquid in each well was added to reach 1 mL was defined as Hour 0. Expression of EGFP in the SC6 cells was observed using an inverted fluorescence microscope at 0 hr, 24 hrs, 72 hrs and 120 hrs, respectively, and photographs were recorded using a digital camera connected to the inverted fluorescence microscope.

SC6 cells = test: Growth of SC6 cells in medium with 5-aza-2′-deoxycytidine (cytotoxicity); conditions: screening medium with 25 μM 5-aza-2′-deoxycytidine
Experimental: Transfection of SC6 cells with me_Trip10 DNA,” of the above Example 4, were plated into each well of 6-well plates (1×10^4 cells/2 mL screening medium/well), followed by cultivation overnight in an incubator (37° C., 95% O2/5% CO2) to permit cell attachment. 10 mM 5-aza-2′-deoxycytidine (dissolved in DMSO) was subsequently added into each well to reach a final concentration of 25 μM (Day 0). Thereafter, medium changes were performed every two days with fresh screening medium supplemented with 25 μM 5-aza-2′-deoxycytidine. From the second time of medium change (Day 4), the screening medium was further supplemented with 10 ng/mL 17β-estradiol. Expression of EGFP in the SC6 cells was observed using an inverted fluorescence microscope prior to making the medium change, and photographs were recorded using a digital camera connected to the inverted fluorescence microscope.

Trip10 promoter [2] = test: Reactivation of inactivated Trip10 promoter by 5-aza-2′-deoxycytidine and 17β-estradiol (EGFP in SC6 cells); conditions: me_Trip10 DNA transfected SC6 cells
Experimental: The obtained photographs were analyzed via an image analyzing software Scion Image. Briefly, the photographs were divided into several regions by the Scion Image software, in which the EGFP signal in a region visually observed as a black region was defined as 0, and the EGFP signal in a region that was visually observed to have the strongest fluorescence was defined as 255. Thereafter, the EGFP intensity was obtained by summing up the EGFP signals in all the regions, followed by dividing by the total area of said regions. […] The transfection-treated SC6 cells, which were harvested two days after the third time of transfection according to the procedures set forth in the section, entitled “2. […] From the second time of medium change (Day 4), the screening medium was further supplemented with 10 ng/mL 17β-estradiol. Expression of EGFP in the SC6 cells was observed using an inverted fluorescence microscope prior to making the medium change, and photographs were recorded using a digital camera connected to the inverted fluorescence microscope.

Row | Compound | methylation of Trip10 promoter induced by me_Trip10 DNA (Trip10 promoter [1]; during and after transfection) | EGFP intensity compared to 0 hr (Trip10 promoter [1]; 72 hrs) | EGFP intensity compared to 0 hr (Trip10 promoter [1]; other time points (24 hrs, 120 hrs)) | cytotoxicity (SC6 cells) | EGFP intensity compared to Day 2 (100%) (Trip10 promoter [2]; Day 4, 25 μM 5-aza-2′-deoxycytidine alone) | reactivation of the Trip10 promoter / reversal of its methylation (Trip10 promoter [2])
1 | C[C@]12CC[C@@H]3c4ccc(O)cc4CC[C@H]3[C@@H]1CC[C@@H]2O [17β-estradiol] | could be prevented from methylation | about 150% | around 100% |  |  | 
2 | Nc1ncn([C@H]2C[C@H](O)[C@@H](CO)O2)c(=O)n1 [5-aza-2′-deoxycytidine] |  |  |  | no cytotoxicity | over 100% | insufficient to reactivate the Trip10 promoter
